According to patent publication US20230278972A1, “SUBSTITUTED HALOALKYL SULFONANILIDE HERBICIDES” (FMC Corporation, priority 2020, published 2023):

Key:
Type in all cases: in vivo
[1] = test system: Foxtail, Giant (giant foxtail, Setaria faberi); experiment: Test A1 postemergence, Foxtail, Giant; conditions: Postemergence
Procedure, shortened: (§1)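 Plants grown in pots of loam/sand mix; preemergence = soil-directed spray on seeded pots, postemergence = spray at 1–2 leaves, height 2–10 cm; test chemicals formulated in non-phytotoxic solvent with surfactant.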

[2] = test system: Ryegrass, Italian (Italian ryegrass, Lolium multiflorum); experiment: Test A1 preemergence, Ryegrass, Italian
Procedure, shortened: (§2)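 Both timings started from seed in a loam-sand blend. Preemergence pots got a directed soil application immediately; postemergence pots were sprayed when seedlings had one or two leaves and stood 2–10 cm. Each compound was prepared in a non-phytotoxic solvent plus surfactant.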

[3] = test system: horseweed (Erigeron canadensis); experiment: Test A1 postemergence, horseweed; conditions: Postemergence
Procedure, shortened: as §1

[4] = test system: wheat (Triticum aestivum); experiment: Test A1 postemergence, wheat; conditions: Postemergence
Procedure, shortened: as §1

soybean (Glycine max) = experiment: Test A1 preemergence, soybean
Procedure, shortened: as §2

[5] = test system: blackgrass (Alopecurus myosuroides); experiment: Test A1 postemergence, blackgrass; conditions: Postemergence, 0 to 100 scale (0 no effect, 100 complete control)
Procedure, shortened: as §1

[6] = test system: Foxtail, Giant (giant foxtail, Setaria faberi); experiment: Test A1 preemergence, Foxtail, Giant
Procedure, shortened: as §2

rice (Oryza sativa) = experiment: Test B1 flooded paddy test, rice; conditions: 250 g ai/ha, Flood, applied to paddy water, 2-leaf stage, visually evaluated after 10 to 14 days
Description: (§3) A dash (-) response means no test result.

corn (Zea mays) = experiment: Test A1 preemergence, corn
Procedure, shortened: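 Postemergence species (ragweed, Palmer pigweed, wild oat) were sprayed at one- to two-leaf stage, 2 to 10 cm tall. Corn was treated preemergence by directed soil spray. Both used a loam soil/sand blend and compounds in a non-phytotoxic solvent mixture with surfactant.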

[7] = test system: Pigweed, Palmer (palmer amaranth, palmer pigweed, Amaranthus palmeri); experiment: Test A1 preemergence, Pigweed, Palmer
Procedure, shortened: as §2

[8] = test system: barnyardgrass (Echinochloa crus-galli); experiment: Test B1 flooded paddy test, barnyardgrass; conditions: 250 g ai/ha, Flood, applied to paddy water, 2-leaf stage, visually evaluated after 10 to 14 days
Description: as §3

[9] = 31 g ai/ha, 0 to 100 scale (0 no effect, 100 complete control), 10 days
[10] = 31 g ai/ha, 0 to 100 scale (0 no effect, 100 complete control)
[11] = 125 g ai/ha, 0 to 100 scale, 0 no effect, 100 complete control

| Compound | Plant response rating, Foxtail, Giant [1, 9] | Plant response rating, Foxtail, Giant ([1]; 125 g ai/ha, 0 to 100 scale) | Plant response rating, Ryegrass, Italian [2, 10] | Plant response rating, Ryegrass, Italian [2, 11] | Plant response rating, Horseweed [3, 9] | Plant response rating, Horseweed ([3]; 125 g ai/ha, 0 to 100 scale) | Plant response rating, Wheat [4, 9] | Plant response rating, Wheat ([4]; 125 g ai/ha, 0 to 100 scale) | Plant response rating, Soybean (soybean (Glycine max); [10]) | Plant response rating, Soybean (soybean (Glycine max); [11]) | Plant response rating, Blackgrass ([5]; 31 g ai/ha, 10 days) | Plant response rating, Blackgrass ([5]; 125 g ai/ha) | Plant response rating, Foxtail, Giant [6, 10] | Plant response rating, Foxtail, Giant [6, 11] | Plant response rating, Rice (0 to 100 scale, 0 is no effect, 100 is complete control) (rice (Oryza sativa)) | Plant response rating, Corn (corn (Zea mays); [10]) | Plant response rating, Corn (corn (Zea mays); [11]) | Plant response rating, Pigweed, Palmer [7, 10] | Plant response rating, Pigweed, Palmer [7, 11] | Plant response rating, Barnyardgrass (0 to 100 scale, 0 is no effect, 100 is complete control) [8] |
| --- | --- | --- | --- | --- | --- | --- | --- | --- | --- | --- | --- | --- | --- | --- | --- | --- | --- | --- | --- | --- |
| Cc1cc(C2CC2)c(C2=NOC3CCCC23)cc1N(COC(=O)C(C)(C)C)S(=O)(=O)C(F)(F)F (centres unmarked) [Compound 355] | 10 | 60 | 20 | 30 | 70 | 70 | 20 | 50 | 20 | 30 | 0 | 0 | 0 | 60 | 10 | 0 | 0 | 0 | 70 | 60 |
| Cc1c(NS(=O)(=O)C(F)(F)F)cc(C(=O)N2CCC(Cl)CC2)c(C)c1C [Compound 356] | 10 | 40 | 0 | 40 | 50 | 80 | 0 | 30 | 0 | 80 | 0 | 0 | 90 | 100 | 0 | 0 | 90 | 50 | 100 | 45 |
| Cc1c(C(=O)N2CCC(Cl)CC2)cc(N(COC(=O)C(C)(C)C)S(=O)(=O)C(F)(F)F)c(C)c1C [Compound 359] | 0 | 60 | 0 | 0 | 50 | 80 | 0 | 30 | 0 | 30 | 0 | 0 | 0 | 90 | 15 | 0 | 0 | 0 | 20 | 95 |
| Cc1c(C(=O)N2CCC(F)(F)CC2)cc(N(COC(=O)C(C)(C)C)S(=O)(=O)C(F)(F)F)c(C)c1C [Compound 360] | 0 | 0 | 0 | 30 | 10 | 70 | 0 | 0 | 0 | 0 | 0 | 0 | 0 | 40 | 25 | 0 | 0 | 0 | 40 | 95 |
| Cc1c(C(=O)N2CCC(F)CC2)cc(N(COC(=O)C(C)(C)C)S(=O)(=O)C(F)(F)F)c(C)c1C [Compound 361] | 10 | 50 | 0 | 0 | 70 | 90 | 0 | 20 | 0 | 20 | 0 | 0 | 0 | 90 | 35 | 0 | 0 | 0 | 20 | 95 |
| Cc1cc(C)c(N(COC(=O)C(C)(C)C)S(=O)(=O)C(F)(F)F)cc1C(=O)N1CCOCC1 [Compound 362] | 20 | 90 | 30 | 70 | 90 | 90 | 40 | 60 | 10 | 40 | 0 | 50 | 20 | 90 | 10 | 0 | 30 | 10 | 80 | 95 |
| CCOC(=O)N(c1cc(C(=O)N2CCOCC2)c(C)cc1C)S(=O)(=O)C(F)(F)F [Compound 363] | 30 | 90 | 80 | 100 | 80 | 90 | 40 | 60 | 10 | 30 | 0 | 50 | 90 | 100 | 25 | 0 | 60 | 90 | 100 | 50 |
